The compounds below were run on Neurospheres of the cerebral cortex and hippocampus of 2-day-old postnatal rats (assay: Neurosphere differentiation test (immunofluorescence with anti-GFAP / anti-MAP2 antibodies)). Conditions: neurospheres grown 7 days in suspension with compound, 24 h on polylysine slides; versus basal (no compound); confocal images.
Format: cell-based, rat
Protocol: Neurospheres of the cerebral cortex and hippocampus of 2-day-old postnatal rats were grown in suspension culture for 7 days in the presence or absence of a formula (I) compound according to the invention, after which they were transferred to slides covered with polylysine and 24 h later (once adhered) immunofluorescence analyses were performed with anti-GFAP antibodies to view the astrocyte differentiation, or with anti-MAP2 to view neuronal differentiation. The images were captured on a TCS SP2 confocal microscope (Leica Microsystems).

SMILES | astrocyte differentiation of cells present in isolated neurospheres (anti-GFAP immunofluorescence) | neuronal differentiation of cells present in isolated neurospheres (anti-MAP2 immunofluorescence)
O=c1sn(Cc2ccccc2)c(=O)n1Cc1ccccc1 [compound [1], 2,4-dibenzyl-[1,2,4]thiadiazolidine-3,5-dione] | induces | induces
O=c1sn(-c2cccc3ccccc23)c(=O)n1Cc1ccccc1 [compound [2], 4-benzyl-2-naphthalene-1-yl-[1,2,4]thiadiazolidine-3,5-dione] | induces | induces
O=c1sn(C(c2ccccc2)c2ccccc2)c(=O)n1Cc1ccccc1 [compound [3], 2-Benzhydryl-4-benzyl-[1,2,4]thiadiazolidine-3,5-dione] | induces | induces
O=c1sn(-c2ccc(Oc3ccccc3)cc2)c(=O)n1Cc1ccccc1 [compound [4], 4-benzyl-2-(4-phenoxy-phenyl)-[1,2,4]thiadiazolidine-3,5-dione] | induces | induces
